Measurements taken from patent US8598339B2, “Withanolide isolated from Physalis longifolia and analogs and methods of use thereof” (University of Kansas, priority 2011, dated 2013).
pIC50: −log10 of the molar value.

Legend:
Type in all cases: cell-based
melanoma cells B16F10 = experiment: MTS cell viability assay, B16F10; conditions: Mus musculus; for pIC50: B16-F10, Table 1, 72-hour treatment; for IC90: B16-F10, Table 2
Summary of the method: (§1)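 JMAR and MDA1986 head and neck SCC cells and B16F10 melanoma cells grown in DMEM with 10% heat-inactivated FBS at 37 °C, 5% CO2, seeded at 1-2×10^4 cells/mL. Viability measured by MTS after 72-hour compound treatment, 3-hour reagent incubation, formazan absorbance at 490 nm.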

SUP-B15 Ph+ ALL cells = experiment: MTS assay, SUP-B15; conditions: for pIC50: Homo sapiens, SUP-B15
Description: (§2) Cell proliferation was analyzed using MTS assay and Trypan Blue exclusion. Annexin V-FITC/Propidium Iodide flow cytometry was used to analyze the induction of apoptosis in SUP-B15 cells after treatment with anolides. Cell cycle analysis was performed using propidium iodide flow cytometry. Modulation of BCR-ABL and downstream effector proteins was determined by western blot analysis. Syngery between withanolides and TKIs was evaluated using MTS viability to calculate combination indices. Apoptotic synergy was evaluated using Annexin V/PI.

[1] = tested on: human carcinoid cells NCI-H727; experiment: MTS cell viability assay, NCI-H727; conditions: Table 1, NCI-H727, 72-hour treatment, read-out: IC50
Description: (§3) Human carcinoid cells, NCI-H727 (ATCC, Manassas, Va.), were cultured under standard conditions. Squamous cell carcinoma of head and neck cells, MDA1986 (Myers, et al. (2002) Clin. Cancer Res. 8:293) and JMAR (Swan, et al. (2003) Oral Oncol. 39:648-55); and melanoma cells lines B16F10 (ATCC, Manassas, Va.) and SKMEL28 (CLS, Eppelheim, Germany) were cultured in DMEM medium supplemented with 10% heat-inactivated fetal bovine serum (Sigma-Aldrich, St. Louis, Mo.), 1×MEM-essential amino acid, 1×MEM vitamin, and penicillin/streptomycin (Sigma-Aldrich, St. Louis, Mo.) in a humid environment of 5% CO2 at 37° C. Activity of withanolides against DRO81-1 and TT medullary thyroid cancer cells was also determined.
(§4) Cells were cultured in 96 well plates at a concentration of 1-2×10^4 cells/mL. Cell viability was assessed with the nonradioactive cell proliferation MTS assay using Cell Titer 96AQUEOUS One Solution Reagent (PROMEGA, Madison, Wis.), according to the manufacturer's instruction. After a 72-hour treatment, 20 μL of Cell Titer 96AQUEOUS One Solution Reagent were added to each well and incubated for 3 hours at 37° C. 5% CO2, and formazan absorbance was measured at 490 nm.

[2] = tested on: human melanoma SKMEL28 cells; experiment: MTS cell viability assay, SKMEL28; conditions: Homo sapiens; for pIC50: SK-MEL-28, 72 h; for IC90: SK-MEL-28, Table 2
Summary of the method: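 SKMEL28 melanoma cells in DMEM with 10% heat-inactivated FBS were seeded at 1-2×10^4 cells/mL and exposed to withanolides for 72 h. Viability was measured by MTS reagent, incubated 3 h at 37 °C, with formazan absorbance read at 490 nm.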

[3] = tested on: squamous cell carcinoma of head and neck cells JMAR; experiment: MTS cell viability assay, JMAR; conditions: for pIC50: Table 1, 72-hour treatment; for IC90: Table 2
Summary of the method: as §1

DRO81-1 cells = experiment: Annexin V/PI staining and flow cytometry, DRO81-1; conditions: 24-hour exposure
SUP-B15 Ph+ALL cells = experiment: Combination with imatinib, MTS viability, SUP-B15; conditions: 16 combinations
Description: as §2

[4] = tested on: squamous cell carcinoma of head and neck cells MDA1986; experiment: MTS cell viability assay, MDA1986; conditions: Table 1, 72-hour treatment
Summary of the method: as §1

BT20 = experiment: MTS assay, BT20
Description: (§5) Cell proliferation was analyzed using MTS assay.

MRC-5 = experiment: MTS cell viability assay, MRC-5; conditions: Homo sapiens, MRC5, Table 1, 72-hour treatment
UMSCC-2 HNSCC cells = experiment: Annexin V/PI staining and flow cytometry, UMSCC-2
Description: In similar analysis with X003, 50% of UMSCC-2 HNSCC cells underwent apoptosis (early and late) at 1 μM, while 90% of cells underwent apoptosis at 3 μM. Apoptosis with 1 μM X003 was confirmed with PARP cleavage and caspase 3 activation in NCI-H727 cells.

HCC1937 cells = experiment: Clonogenic assay, HCC1937; conditions: 1-2 μM; treated 24 hours, cultured two weeks
SUP-B15 cells [5] = experiment: Annexin V/propidium iodide apoptosis, SUP-B15; conditions: 48 hour; approximately 10×IC50 (Withaferin A, X001), 4×IC50 (X003)
Description: as §2
At no concentrations was the population of cells in necrosis significant.

[6] = tested on: DRO81-1 medullary thyroid cancer cells; experiment: MTS cell viability assay, DRO81-1; conditions: Table 1; DRO81-1; 72-hour treatment; read-out: IC50
Description: as §3, §4

MCF-7 = experiment: MTS assay, MCF-7
Description: as §5

normal MRC-5 fibroblasts = experiment: MTS assay, normal MRC-5 fibroblasts (Example 7); conditions: Homo sapiens, MRC5
Description: as §2

HS766T = experiment: Pancreatic cancer cell viability, HS766T; conditions: read-out: IC50
Description: (§6) The activity of the withanolides of this invention were tested in pancreatic cancer cells. […] Moreover, IC50 values were determined for these compounds (Table 14).

Mia PaCa-2 = experiment: Pancreatic cancer cell viability, Mia PaCa-2; conditions: Homo sapiens, MIA PaCa2, read-out: IC50
Description: as §6

SUP-B15 cells [7] = experiment: Trypan blue exclusion assay, SUP-B15; conditions: 5×, 2×, 1×, 0.5×IC50
Description: Cell proliferation was analyzed using MTS assay and Trypan Blue exclusion. Annexin V-FITC/Propidium Iodide flow cytometry was used to analyze the induction of apoptosis in SUP-B15 cells after treatment with anolides. Cell cycle analysis was performed using propidium iodide flow cytometry. Modulation of BCR-ABL and downstream effector proteins was determined by western blot analysis. […] between withanolides and TKIs was evaluated using MTS viability to calculate combination indices. Apoptotic synergy was evaluated using Annexin V/PI.

SUP-B15 cells [8] = experiment: Cell cycle analysis by PI flow cytometry, SUP-B15
Description: as §2

[9] = tested on: hsf1 and client proteins of Hsp90 in Hs766T cells; experiment: Western blot, Hs766T
[10] = Table 3, treated for 72 hours, NA = no activity

CC1=C(CO)C(=O)O[C@@H]([C@@H](C)C2CC[C@H]3[C@@H]4C[C@H]5O[C@]56[C@@H](O)C=CC(=O)[C@]6(CO)[C@H]4CC[C@]23C)C1 (some centres unmarked) [Compound X001]
pIC50 (melanoma cells B16F10): 6.04 | IC90 (melanoma cells B16F10): 2640 nM | pIC50 (SUP-B15 Ph+ ALL cells): 6.46 | pIC50 [1]: 5.77 | pIC50 ([2]; Table 1, 72-hour treatment): 5.30 | pIC50 [2, 10]: 5.33 | IC90 [2]: 2140 nM | pIC50 [3]: 5.27 | IC90 [3]: 4.9 µM | induction of apoptosis (DRO81-1 cells; 5 μM): apoptosis was induced | cells gated toward late apoptosis (DRO81-1 cells; 10 μM): 65% | synergy with imatinib (SUP-B15 Ph+ALL cells): showed synergy at all concentrations tested | pIC50 [4]: 5.48 | Log ECF (BT20): 0.91 | pIC50 (MRC-5): 4.90 | cells undergoing apoptosis (early and late) (UMSCC-2 HNSCC cells; 5 μM, 24-hour exposure, HNSCC cells): 18% | colony formation (HCC1937 cells): strongly inhibited | induction of apoptosis (SUP-B15 cells [5]): almost all cells were in either late or early apoptosis | pIC50 [6]: 5.64 | Log ECF (MCF-7): 1.88 | pIC50 (normal MRC-5 fibroblasts): 5.09 | pIC50 (HS766T): 5.89 | pIC50 (Mia PaCa-2): 6.10 | cell death at 24 hours, trypan blue exclusion (SUP-B15 cells [7]): caused death at 24 hours with 2× and 5×IC50 values | Cell Cycle (%) G0/G1 (SUP-B15 cells [8]; 200 nM, 48 hour treatment): 53.1% | Cell Cycle (%) G2/M (SUP-B15 cells [8]; 200 nM, 48 hour treatment): 26.4% | Cell Cycle (%) S (SUP-B15 cells [8]; 200 nM, 48 hour treatment): 19.5% | Cell Cycle (%) G0/G1 (SUP-B15 cells [8]; 400 nM, 48 hour treatment): 54.6% | Cell Cycle (%) G2/M (SUP-B15 cells [8]; 400 nM, 48 hour treatment): 27.1% | Cell Cycle (%) S (SUP-B15 cells [8]; 400 nM, 48 hour treatment): 18.3% | Cell Cycle (%) G0/G1 (SUP-B15 cells [8]; 800 nM, 48 hour treatment): 47.5% | Cell Cycle (%) G2/M (SUP-B15 cells [8]; 800 nM, 48 hour treatment): 42.2% | Cell Cycle (%) S (SUP-B15 cells [8]; 800 nM, 48 hour treatment): 10.3% | Cell Cycle (%) G0/G1 (SUP-B15 cells [8]; 1600 nM, 48 hour treatment): 39.9% | Cell Cycle (%) G2/M (SUP-B15 cells [8]; 1600 nM, 48 hour treatment): 44.5% | Cell Cycle (%) S (SUP-B15 cells [8]; 1600 nM, 48 hour treatment): 15.7% | Cell Cycle (%) G0/G1 (SUP-B15 cells [8]; 3200 nM, 48 hour treatment): 49.9% | Cell Cycle (%) G2/M (SUP-B15 cells [8]; 3200 nM, 48 hour treatment): 31.5% | Cell Cycle (%) S (SUP-B15 cells [8]; 3200 nM, 48 hour treatment): 18.6%

CC(=O)OCC1=C(C)C[C@H]([C@@H](C)C2CC[C@H]3[C@@H]4C[C@H]5O[C@]56[C@@H](OC(C)=O)C=CC(=O)[C@]6(COC(C)=O)[C@H]4CC[C@]23C)OC1=O (some centres unmarked) [Compound X003, 4,19,27-triacetyl X001]
pIC50 (melanoma cells B16F10): 7.17 | IC90 (melanoma cells B16F10): 330 nM | pIC50 (SUP-B15 Ph+ ALL cells): 7.32 | Fold Difference (SUP-B15 Ph+ ALL cells; MRC-5 vs SUP-B15 IC50): 31X | pIC50 [1]: 6.49 | pIC50 ([2]; Table 1, 72-hour treatment): 6.27 | pIC50 [2, 10]: 6.66 | IC90 [2]: 360 nM | pIC50 [3]: 6.80 | IC90 [3]: 1.3 µM | combination index (CI) with imatinib (SUP-B15 Ph+ALL cells; 0.25×-1×IC50 of each drug): 0.136 | synergy with imatinib (SUP-B15 Ph+ALL cells): showed synergy at all concentrations tested | pIC50 [4]: 6.04 | pIC50 (MRC-5): 6.24 | cells undergoing apoptosis (early and late) (UMSCC-2 HNSCC cells; 1 μM, UMSCC-2): 50% | cells undergoing apoptosis (UMSCC-2 HNSCC cells; 3 μM, UMSCC-2): 90% | induction of apoptosis (SUP-B15 cells [5]): almost all cells were in either late or early apoptosis | pIC50 [6]: 6.47 | stress and client protein response (western blot) [9]: induced oxidative and proteotoxic stress, while depleting hsf1 and client proteins of Hsp90 | pIC50 (normal MRC-5 fibroblasts): 5.82 | pIC50 (HS766T): 6.40 | pIC50 (Mia PaCa-2): 6.46 | cell death at 24 hours, trypan blue exclusion (SUP-B15 cells [7]): significant cell death at 24 hours at IC50 values | Cell Cycle (%) G0/G1 (SUP-B15 cells [8]; 15 nM): 57.4% | Cell Cycle (%) G2/M (SUP-B15 cells [8]; 15 nM): 20.7% | Cell Cycle (%) S (SUP-B15 cells [8]; 15 nM): 21.9% | Cell Cycle (%) G0/G1 (SUP-B15 cells [8]; 30 nM): 66.4% | Cell Cycle (%) G2/M (SUP-B15 cells [8]; 30 nM): 24% | Cell Cycle (%) S (SUP-B15 cells [8]; 30 nM): 9.5% | Cell Cycle (%) G0/G1 (SUP-B15 cells [8]; 60 nM): 62.5% | Cell Cycle (%) G2/M (SUP-B15 cells [8]; 60 nM): 22.2% | Cell Cycle (%) S (SUP-B15 cells [8]; 60 nM): 15.3% | Cell Cycle (%) G0/G1 (SUP-B15 cells [8]; 120 nM): 52.6% | Cell Cycle (%) G2/M (SUP-B15 cells [8]; 120 nM): 30% | Cell Cycle (%) S (SUP-B15 cells [8]; 120 nM): 17.4%
